How the values were obtained:
Assay type in all cases: in vivo
[1] = system: E. black nightshade (SOLPT; Solanum ptycanthum); assay: Test H postemergence, mixtures of Cpd. No. 20 with atrazine or glyphosate
From the text: (§1) This test evaluated the effect of mixtures of Cpd. No. 20 with atrazine or glyphosate on several plant species. Seeds of plant species selected from corn (ZEAMD; Zea mays, cv. ‘Pioneer 1184’), soybean (GLXMA; Glycine max, cv. Pioneer 35T58), giant foxtail (SETFA; Setaria faberi), Surinamgrass (BRADC; Brachiaria decumbens), fall panicum (PANDI; Panicum dichotomiflorum), velvetleaf (ABUTH; Abutilon threophrasti), mare's tail (ERICA; Conyza canadensis), barnyardgrass (ECHCG; Echinochloa crus-galli), large crabgrass (DIGSA; Digitaria sanguinalis), palmer amaranth (AMAPA; Amaranthus palmeri), common waterhemp (AMATU; Amaranthus rudis), E. black nightshade (SOLPT; Solanum ptycanthum), and common ragweed (AMBEL; Ambrosia artemisiifolia) were planted in pots containing Redi-Earth® planting medium (Scotts Company, 14111 Scottslawn Road, Marysville, Ohio 43041) comprising spaghnum peat moss, vermiculite, wetting agent and starter nutrients and treated postemergence using test chemicals formulated in a non-phytotoxic solvent mixture which included a surfactant. Plants ranged in height from 2 to 10 cm and were in the one- to two-leaf stage for the postemergence treatment. Treated plants and untreated controls were maintained in a greenhouse for approximately 14 d, after which time all treated plants were compared to untreated controls and visually evaluated for injury. Plant response ratings, summarized in Tables H1 & H2, are based on a 0 to 100 scale where 0 is no effect and 100 is complete control. A dash (-) response means no test result. Test results are presented as a mean of 4 reps.

[2] = system: Surinamgrass (BRADC; Brachiaria decumbens); assay: as above
From the text: as §1

[3] = system: barnyardgrass (ECHCG; Echinochloa crus-galli); assay: as above
From the text: as §1

[4] = system: common ragweed (AMBEL; Ambrosia artemisiifolia); assay: as above
From the text: as §1

[5] = system: common waterhemp (AMATU; Amaranthus rudis); assay: as above
From the text: as §1

[6] = system: corn (ZEAMD; Zea mays, cv. ‘Pioneer 1184’); assay: as above
From the text: as §1

[7] = system: fall panicum (PANDI; Panicum dichotomiflorum); assay: as above
From the text: as §1

[8] = system: giant foxtail (SETFA; Setaria faberi); assay: as above
From the text: as §1

[9] = system: large crabgrass (DIGSA; Digitaria sanguinalis); assay: as above
From the text: as §1

[10] = system: mare's tail (ERICA; Conyza canadensis); assay: as above
From the text: as §1

[11] = system: palmer amaranth (AMAPA; Amaranthus palmeri); assay: as above
From the text: as §1

[12] = system: soybean (GLXMA; Glycine max, cv. Pioneer 35T58); assay: as above
From the text: as §1

[13] = system: velvetleaf (ABUTH; Abutilon threophrasti); assay: as above
From the text: as §1

[14] = system: corn (ZEAMD; Zea mays, cv. ‘Pioneer 1184’); assay: Test of Tables L1 to L3, postemergence, mixtures of Cpd. No. 20 with benoxacor, isoxadifen-ethyl, or cloquintocet-mexyl
From the text: (§2) This test evaluated the effect of mixtures of Cpd. No. 20 with benoxacor, isoxadifen-ethyl, or cloquintocet-mexyl on several plant species. Seeds of plant species selected from corn (ZEAMD; Zea mays, cv. ‘Pioneer 1184’), soybean (GLXMA; Glycine max, cv. Pioneer 35T58), winter wheat (TRZAW; Triticum aetivum, cv. Arezzo), rice (ORYSS; Oryza sativa, cv. M202), and giant foxtail (SETFA; Setaria faberi) were planted in pots containing Redi-Earth® planting medium (Scotts Company, 14111 Scottslawn Road, Marysville, Ohio 43041) comprising spaghnum peat moss, vermiculite, wetting agent and starter nutrients and treated postemergence using test chemicals formulated in a non-phytotoxic solvent mixture which included a surfactant. Plants ranged in height from 7 to 10 cm and were in the one- to two-leaf stage for the postemergence treatment. Treated plants and untreated controls were maintained in a greenhouse for approximately 14 d, after which time all treated plants were compared to untreated controls and visually evaluated for injury. Plant response ratings, summarized in Tables L1 to L3, are based on a 0 to 100 scale where 0 is no effect and 100 is complete control. A dash (-) response means no test result. Test results are presented as a mean of 4 reps.

[15] = system: giant foxtail (SETFA; Setaria faberi); assay: as above
From the text: as §2

[16] = system: rice (ORYSS; Oryza sativa, cv. M202); assay: as above
From the text: as §2

[17] = system: soybean (GLXMA; Glycine max, cv. Pioneer 35T58); assay: as above
From the text: as §2

[18] = system: winter wheat (TRZAW; Triticum aetivum, cv. Arezzo); assay: as above
From the text: as §2

[19] = system: corn (ZEAMD; Zea mays, cv. ‘Pioneer 1184’); assay: Test M postemergence, mixtures of Cpd. No. 20 with isoxadifen-ethyl, cloquintocet-mexyl or Mefenpyr-diethyl; settings: approx. 14 d, second component alone 31 g a.i./ha
From the text: as §2, with “with” for “with benoxacor,”, “or cloquintocet-mexyl, or Mefenpyr-diethyl” for “or cloquintocet-mexyl”, “Arezzo), winter barley (HORVW; Hordeum vulgare, cv. Boone),” for “Arezzo),”, “Tables M1” for “Tables L1”, “to M3,” for “to L3,”, “of 3” for “of 4”

[20] = system: giant foxtail (SETFA; Setaria faberi); assay: as above; settings: approx. 14 d, second component alone 31 g a.i./ha
From the text: as §2, with “with” for “with benoxacor,”, “or cloquintocet-mexyl, or Mefenpyr-diethyl” for “or cloquintocet-mexyl”, “Arezzo), winter barley (HORVW; Hordeum vulgare, cv. Boone),” for “Arezzo),”, “Tables M1” for “Tables L1”, “to M3,” for “to L3,”, “of 3” for “of 4”

[21] = system: rice (ORYSS; Oryza sativa, cv. M202); assay: as above; settings: approx. 14 d, second component alone 31 g a.i./ha
From the text: as §2, with “with” for “with benoxacor,”, “or cloquintocet-mexyl, or Mefenpyr-diethyl” for “or cloquintocet-mexyl”, “Arezzo), winter barley (HORVW; Hordeum vulgare, cv. Boone),” for “Arezzo),”, “Tables M1” for “Tables L1”, “to M3,” for “to L3,”, “of 3” for “of 4”

[22] = system: soybean (GLXMA; Glycine max, cv. Pioneer 35T58); assay: as above; settings: approx. 14 d, second component alone 31 g a.i./ha
From the text: as §2, with “with” for “with benoxacor,”, “or cloquintocet-mexyl, or Mefenpyr-diethyl” for “or cloquintocet-mexyl”, “Arezzo), winter barley (HORVW; Hordeum vulgare, cv. Boone),” for “Arezzo),”, “Tables M1” for “Tables L1”, “to M3,” for “to L3,”, “of 3” for “of 4”

[23] = system: winter barley (HORVW; Hordeum vulgare, cv. Boone); assay: as above; settings: approx. 14 d, second component alone 31 g a.i./ha
From the text: as §2, with “with” for “with benoxacor,”, “or cloquintocet-mexyl, or Mefenpyr-diethyl” for “or cloquintocet-mexyl”, “Arezzo), winter barley (HORVW; Hordeum vulgare, cv. Boone),” for “Arezzo),”, “Tables M1” for “Tables L1”, “to M3,” for “to L3,”, “of 3” for “of 4”

[24] = system: winter wheat (TRZAW; Triticum aetivum, cv. Arezzo); assay: as above; settings: approx. 14 d, second component alone 31 g a.i./ha
From the text: as §2, with “with” for “with benoxacor,”, “or cloquintocet-mexyl, or Mefenpyr-diethyl” for “or cloquintocet-mexyl”, “Arezzo), winter barley (HORVW; Hordeum vulgare, cv. Boone),” for “Arezzo),”, “Tables M1” for “Tables L1”, “to M3,” for “to L3,”, “of 3” for “of 4”

[25] = approx. 14 d, Cloquintocet-mexyl alone 31 g a.i./ha

| SMILES | Observed result (plant response rating), SOLPT ([1]; applied alone at 125 g a.i./ha) | Observed result (plant response rating), BRADC ([2]; applied alone at 125 g a.i./ha) | Observed result (plant response rating), ECHCG ([3]; applied alone at 125 g a.i./ha) | Observed result (plant response rating), AMBEL ([4]; applied alone at 125 g a.i./ha) | Observed result (plant response rating), AMATU ([5]; applied alone at 125 g a.i./ha) | Observed result (plant response rating), ZEAMD ([6]; applied alone at 125 g a.i./ha) | Observed result (plant response rating), PANDI ([7]; applied alone at 125 g a.i./ha) | Observed result (plant response rating), SETFA ([8]; applied alone at 125 g a.i./ha) | Observed result (plant response rating), DIGSA ([9]; applied alone at 125 g a.i./ha) | Observed result (plant response rating), ERICA ([10]; applied alone at 125 g a.i./ha) | Observed result (plant response rating), AMAPA ([11]; applied alone at 125 g a.i./ha) | Observed result (plant response rating), GLXMA ([12]; applied alone at 125 g a.i./ha) | Observed result (plant response rating), ABUTH ([13]; applied alone at 125 g a.i./ha) | Plant response rating (0 to 100 scale) ZEAMD [19] | Plant response rating (0 to 100 scale) SETFA [20] | Plant response rating (0 to 100 scale) ORYSS [21] | Plant response rating (0 to 100 scale) GLXMA [22] | Plant response rating (0 to 100 scale) HORVW [23] | Plant response rating (0 to 100 scale) TRZAW [24] | further results |
| --- | --- | --- | --- | --- | --- | --- | --- | --- | --- | --- | --- | --- | --- | --- | --- | --- | --- | --- | --- | --- |
| CCNc1nc(Cl)nc(NC(C)C)n1 [Atrazine, atrazine] | 28 | 0 | 96 | 48 | 30 | 0 | 0 | 0 | 0 | 23 | 76 | 15 | 0 |  |  |  |  |  |  | Observed result (plant response rating), SOLPT ([1]; applied alone at 250 g a.i./ha): 64; Observed result (plant response rating), BRADC ([2]; applied alone at 250 g a.i./ha): 0; Observed result (plant response rating), ECHCG ([3]; applied alone at 250 g a.i./ha): 100; Observed result (plant response rating), AMBEL ([4]; applied alone at 250 g a.i./ha): 80; Observed result (plant response rating), AMATU ([5]; applied alone at 250 g a.i./ha): 39; Observed result (plant response rating), ZEAMD ([6]; applied alone at 250 g a.i./ha): 0; Observed result (plant response rating), PANDI ([7]; applied alone at 250 g a.i./ha): 0; Observed result (plant response rating), SETFA ([8]; applied alone at 250 g a.i./ha): 0; Observed result (plant response rating), DIGSA ([9]; applied alone at 250 g a.i./ha): 0; Observed result (plant response rating), ERICA ([10]; applied alone at 250 g a.i./ha): 83; Observed result (plant response rating), AMAPA ([11]; applied alone at 250 g a.i./ha): 74; Observed result (plant response rating), GLXMA ([12]; applied alone at 250 g a.i./ha): 33; Observed result (plant response rating), ABUTH ([13]; applied alone at 250 g a.i./ha): 10 |
| CCCCCC(C)OC(=O)COc1ccc(Cl)c2cccnc12 (centres unmarked) [Cloquintocet-mexyl, cloquintocet-mexyl, reference compound] |  |  |  |  |  |  |  |  |  |  |  |  |  | 0 | 0 | 0 | 0 | 0 | 0 | Plant response rating (0 to 100 scale) ZEAMD [14, 25]: 0; Plant response rating (0 to 100 scale) SETFA [15, 25]: 0; Plant response rating (0 to 100 scale) ORYSS [16, 25]: 0; Plant response rating (0 to 100 scale) GLXMA [17, 25]: 0; Plant response rating (0 to 100 scale) TRZAW [18, 25]: 0 |
| O=C(O)CNCP(=O)(O)O [Glyphosate, glyphosate] | 51 | 69 | 31 | 84 | 25 | 74 | 51 | 75 | 90 | 0 | 23 | 25 | 15 |  |  |  |  |  |  | Observed result (plant response rating), SOLPT ([1]; applied alone at 62 g a.i./ha): 43; Observed result (plant response rating), BRADC ([2]; applied alone at 62 g a.i./ha): 68; Observed result (plant response rating), ECHCG ([3]; applied alone at 62 g a.i./ha): 6; Observed result (plant response rating), AMBEL ([4]; applied alone at 62 g a.i./ha): 68; Observed result (plant response rating), AMATU ([5]; applied alone at 62 g a.i./ha): 11; Observed result (plant response rating), ZEAMD ([6]; applied alone at 62 g a.i./ha): 68; Observed result (plant response rating), PANDI ([7]; applied alone at 62 g a.i./ha): 28; Observed result (plant response rating), SETFA ([8]; applied alone at 62 g a.i./ha): 74; Observed result (plant response rating), DIGSA ([9]; applied alone at 62 g a.i./ha): 86; Observed result (plant response rating), ERICA ([10]; applied alone at 62 g a.i./ha): 0; Observed result (plant response rating), AMAPA ([11]; applied alone at 62 g a.i./ha): 43; Observed result (plant response rating), GLXMA ([12]; applied alone at 62 g a.i./ha): 10; Observed result (plant response rating), ABUTH ([13]; applied alone at 62 g a.i./ha): 0 |
| CCOC(=O)C1=NOC(c2ccccc2)(c2ccccc2)C1 [Isoxadifen-ethyl, isoxadifen-ethyl, reference compound] |  |  |  |  |  |  |  |  |  |  |  |  |  | 0 | 0 | 0 | 0 | 0 | 0 | ZEAMD plant response rating, 0 to 100 scale ([14]; 31 g a.i./ha): 0; SETFA plant response rating, 0 to 100 scale ([15]; 31 g a.i./ha): 0; ORYSS plant response rating, 0 to 100 scale ([16]; 31 g a.i./ha): 8; GLXMA plant response rating, 0 to 100 scale ([17]; 31 g a.i./ha): 10; TRZAW plant response rating, 0 to 100 scale ([18]; 31 g a.i./ha): 0 |
| CCOC(=O)C1=NN(c2ccc(Cl)cc2Cl)C(C)(C(=O)OCC)C1 (centres unmarked) [Mefenpyr-diethyl, reference compound] |  |  |  |  |  |  |  |  |  |  |  |  |  | 0 | 0 | 0 | 0 | 0 | 0 |  |
